Data taken from patent US9079964B2, “Immunoassay for cyclopropylindole based synthetic cannabinoids, metabolites and derivatives thereof” (Randox Laboratories Limited, priority 2013, dated 2015).

Legend:
[1] = tested on: antiserum raised to Immunogen I; test: UR144/XLR11 Synthetic Cannabinoids (Spice) ELISA, antiserum raised to Immunogen I (third bleed); assay type: binding, sheep; settings: for Concentration of compounds that elicit a negative response: Table 4, negative response at this concentration; for % Cross-Reactivity: Table 4, relative to UR144 N-Pentanoic Acid = 100
Method: (§1) The wells of an enhanced binding 96 well polystyrene microtiter plate were coated with IgG fraction of antiserum raised to Immunogen I or II, diluted in 10 mM Tris, pH 8.5 (125 μl/well). The appropriate antibody coating dilution was determined using standard ELISA checkerboard techniques. The plate was incubated overnight at 4° C., washed 4 times over 10 minutes with Tris buffered saline containing Tween20 (TBST) and tapped dry. Standard solutions (UR-144 N-pentanoic acid) were applied at 0, 0.625, 1.25, 2.5, 5, 10, 20 and 40 ng/ml and 50 μl of each was added to the appropriate wells. 75 μl of conjugate (appropriate hapten-HRP) diluted in Tris buffer (pH 7.2) containing EDTA, D-mannitol, sucrose, thimerosol and BSA, was added to each of the wells. The appropriate dilution of conjugate was also determined using standard ELISA checkerboard techniques. The plate was incubated at 25° C. for 1 hour. Excess unbound conjugate was removed by washing 6 times over a ten minute period with TBST. 125 μl of tetramethylbenzidine (TMB) substrate solution was added to each well of the plate that was then incubated for 20 minutes in the dark at room temperature. The reaction was terminated by addition of 125 μl of 0.2 M H2SO4 to each well. The absorbance was then measured at 450 nm using a microtiter plate reader. The data are inputted to a computer program called ‘KC Junior’ (Biotek). It gives a 4 parameter fit curve and allows the calculation of concentrations between the standard runs. This program is used to calculate the IC50 values by dividing the 0 ng/ml optical density (OD) value by 2 and obtaining the concentration value from the curve for this OD.
(§2) Cross-reactivity was calculated according to the following formula: % CR=IC50, UR-144 N-pentanoic acid/IC50, cross reactant×100 Where % CR is the percentage cross-reactivity, IC50, UR-144 N-pentanoic acid is the concentration of UR-144 N-pentanoic acid that causes 50% displacement of signal and IC50, cross reactant is the concentration of the cannabinoid/metabolite/selected molecule that causes 50% displacement of signal.
A further assay was carried out in accordance with the protocol described in Example 9 using Immunogen I.

[2] = tested on: antiserum raised to Immunogen I; test: Competitive ELISA with IgG fraction of antiserum raised to Immunogen I (second bleed) and hapten 1-HRP detecting agent; assay type: binding, sheep; settings: Table 2; for % B/BO: cross-reactant at 100 ng/ml (single level); for IC50 / % Cross-reactivity (CR): cross-reactant tested at 100 ng/ml; for % Cross-reactivity (CR): relative to UR-144 N-pentanoic acid
Method: as §1, §2
In order to determine the specificity of the competitive ELISAs, standard solutions of a range of structurally related synthetic cannabinoids and their metabolites were prepared in TBST (Tris-Buffered Saline and Tween 20). Using the calibration curves generated and employing a single level of cross reactants, these were used to determine the cross-reactivity of the immunoassays with these substances.

Structure (SMILES) | Concentration of compounds that elicit a negative response [1] | % B/BO [2] | IC50 [2] | % Cross-reactivity (CR) [2] | % Cross-Reactivity [1]
CCCCCn1c(O)c(C(=O)c2cccc3ccccc23)c2ccccc21 [2-OH JWH-018] | 100 ng/mL |  |  |  | 
CCCCn1c(O)c(C(=O)c2cccc3ccccc23)c2ccccc21 [2-OH JWH-073] | 100 ng/mL |  |  |  | 
CCCCCn1cc(C(=O)c2cccc3ccccc23)c2c(O)cccc21 [4-OH JWH-018] | 100 ng/mL |  |  |  | 
CCCCn1cc(C(=O)c2cccc3ccccc23)c2c(O)cccc21 [4-OH JWH-073] | 100 ng/mL |  |  |  | 
CCCCn1cc(C(=O)c2cccc3ccccc23)c2cc(O)ccc21 [5-OH JWH-073] | 100 ng/mL |  |  |  | 
CCCCn1cc(C(=O)c2cccc3ccccc23)c2ccc(O)cc21 [6-OH JWH-073] | 100 ng/mL |  |  |  | 
CCCCCn1cc(C(=O)c2cccc3ccccc23)c2cccc(O)c21 [7-OH JWH-018] | 100 ng/mL |  |  |  | 
CCCCn1cc(C(=O)c2cccc3ccccc23)c2cccc(O)c21 [7-OH JWH-073] | 100 ng/mL |  |  |  | 
O=C(c1cn(CCCCCO)c2ccccc12)C12CC3CC(CC(C3)C1)C2 [AB001 N-pentanol] | 100 ng/mL |  |  |  | 
O=C(O)CCCCn1cc(C(=O)C23CC4CC(CC(C4)C2)C3)c2ccccc21 [AB001N-pentanoic acid] | 100 ng/mL |  |  |  | 
O=C(NC12CC3CC(CC(C3)C1)C2)c1nn(CCCCCF)c2ccccc12 [AKB48 N (5-fluoropentyl) analog] | 100 ng/mL |  |  |  | 
O=C(c1ccccc1I)c1cn(CCCCCF)c2ccccc12 [AM694] | 100 ng/mL | 79.00% | >0.1 µg/mL | <3.0% | 
CN1CCCCC1Cn1cc(C(=O)c2cccc3ccccc23)c2ccccc21 (stereo not shown) [AM1220] |  | 73.59% | >0.1 µg/mL | <3.0% | 
CN1CCCCC1Cn1cc(C(=O)c2cc([N+](=O)[O-])ccc2I)c2ccccc21 (stereo not shown) [AM1241] | 100 ng/mL | 77.96% | >0.1 µg/mL | <3.0% | 
O=C(c1cccc2ccccc12)c1cn(CCCCCF)c2ccccc12 [AM2201] | 100 ng/mL | 85.58% | >0.1 µg/mL | <3.0% | 
CCCn1c(C)c(C(=O)c2cccc3ccccc23)c2ccccc21 [JWH-015] | 100 ng/mL | 89.77% | >0.1 µg/mL | <3.0% | 
CCCCCn1cc(C(=O)c2cccc3ccccc23)c2cc(O)ccc21 [JWH-018 (5 hydroxyindole)] | 100 ng/mL | 94.61% | >0.1 µg/mL | <3.0% | 
CCCCCn1cc(C(=O)c2cccc3ccccc23)c2ccc(O)cc21 [JWH-018 (6 hydroxyindole)] | 100 ng/mL | 93.92% | >0.1 µg/mL | <3.0% | 
O=C(c1cccc2ccccc12)c1cn(CCCCCO)c2ccccc12 [JWH-018 N (5 hydroxypentyl) metabolite, 1-(5-hydroxypentyl)-1H-indol-3-yl(naphthalen-1-yl)methanone] | 100 ng/mL | 87.56% | >0.1 µg/mL | <3.0% | 
O=C(O)CCCCn1cc(C(=O)c2cccc3ccccc23)c2ccccc21 [JWH-018 N (carboxybutyl) metabolite] |  | 89.14% | >0.1 µg/mL | <3.0% | 

Structure (SMILES) | Concentration of compounds that elicit a negative response [1] | % B/BO [2] | IC50 [2] | % Cross-reactivity (CR) [2] | % Cross-Reactivity [1]
CC(O)CCCn1cc(C(=O)c2cccc3ccccc23)c2ccccc21 (stereo not shown) [JWH-018 N-(4-hydroxypentyl) metabolite, 1-(4-hydroxypentyl)-1H-indol-3-yl(napthalen-1-yl)-methanone] | 100 ng/mL |  |  |  | 
O=C(O)CCCCn1cc(-c2cccc3ccccc23)c2ccccc21 [JWH-018 N-pentanoic acid metabolite, 5-(3-(1-naphthyl)-1H-indol-1-yl)pentanoic acid] | 100 ng/mL |  |  |  | 
CCCCCn1cc(C(=O)NC23CC4CC(CC(C4)C2)C3)c2ccccc21 [JWH-018 adamantyl carboxamide] | 10 ng/mL |  |  |  | 
CCCCCn1cc(C(=O)C23CC4CC(CC(C4)C2)C3)c2ccccc21 [JWH-018 adamantyl] | 100 ng/mL |  |  |  | 
CCCCCn1cc(C(=O)c2cccc3ccccc23)c2ccccc21 [JWH-018] |  | 87.89% | >0.1 µg/mL | <3.0% | 
CCCCCCn1cc(C(=O)c2cccc3ccccc23)c2cc(O)ccc21 [JWH-019 5-hydroxyindole metabolite] | 100 ng/mL |  |  |  | 
CCCCCCn1cc(C(=O)c2cccc3ccccc23)c2ccccc21 [JWH-019] |  | 87.30% | >0.1 µg/mL | <3.0% | 
CC(O)CCn1cc(C(=O)c2cccc3ccccc23)c2ccccc21 (stereo not shown) [JWH-073 N-(3-hydroxybutyl) metabolite, 1-(3-hydroxybutyl)-1H-indol-3-yl(napthalen-1-yl)methanone] | 100 ng/mL |  |  |  | 
O=C(c1cccc2ccccc12)c1cn(CCCCO)c2ccccc12 [JWH-073 N-(4-hydroxybutyl) metabolite, 1-(4-hydroxybutyl)-1H-indol-3-yl(naphthalen-1-yl)methanone] | 100 ng/mL |  |  |  | 
O=C(O)CCCn1cc(-c2cccc3ccccc23)c2ccccc21 [JWH-073 N-butanoic acid metabolite, 4-(3-(1-naphthyl)-1H-indol-1-yl)butanoic acid] | 100 ng/mL |  |  |  | 
COc1ccc(C(=O)c2cn(CCCCCO)c3ccccc23)c2ccccc12 [JWH-081 N-(5-hydroxypentyl) metabolite] | 100 ng/mL |  |  |  | 
CCCCCn1cc(C(=O)c2ccc(CC)c3ccccc23)c2ccccc21 [JWH-210] |  | 95.89% | >0.1 µg/mL | <3.0% | 
COc1ccccc1CC(=O)c1cn(CCCCCC(=O)O)c2ccccc12 [JWH-250 N-(5-carboxypentyl) metabolite] | 100 ng/mL |  |  |  | 
COc1ccccc1CC(=O)c1cn(CCCCCO)c2ccccc12 [JWH-250 N-(5-hydroxypentyl) metabolite] | 100 ng/mL |  |  |  | 
O=C(c1cccc2ccccc12)c1c[nH]c2ccccc12 [N-desalkyl JWH-018, 3-(1-naphthoyl) indole] | 100 ng/mL |  |  |  | 
O=C(NC12CC3CC(CC(C3)C1)C2)c1cn(CCCCCF)c2ccccc12 [STS135] | 100 ng/mL |  |  |  | 
CC(O)CCCn1cc(C(=O)C2C(C)(C)C2(C)C)c2ccccc21 (stereo not shown) [UR144 N-(4-hydroxypentyl) metabolite] |  |  |  |  | 107%
C=C(C)C(C)(C)CC(=O)c1cn(CCCCCF)c2ccccc12 [XLR11 Degradant] |  |  |  |  | 3%
CC(O)CCCn1cc(C(=O)C2C(C)(C)C2(C)C)c2ccccc21 (stereo not shown) [XLR11 N-(4-hydroxypentyl) metabolite] |  |  |  |  | 2%
